Experimental data: publication PMC2833264 (Photosynthesis research, 2009)

Molecular target: T1, C. reinhardtii nitrite reductase (Chlamydomonas reinhardtii, UniProt Q9ZR67)
T1 sequence (Q9ZR67 29-589): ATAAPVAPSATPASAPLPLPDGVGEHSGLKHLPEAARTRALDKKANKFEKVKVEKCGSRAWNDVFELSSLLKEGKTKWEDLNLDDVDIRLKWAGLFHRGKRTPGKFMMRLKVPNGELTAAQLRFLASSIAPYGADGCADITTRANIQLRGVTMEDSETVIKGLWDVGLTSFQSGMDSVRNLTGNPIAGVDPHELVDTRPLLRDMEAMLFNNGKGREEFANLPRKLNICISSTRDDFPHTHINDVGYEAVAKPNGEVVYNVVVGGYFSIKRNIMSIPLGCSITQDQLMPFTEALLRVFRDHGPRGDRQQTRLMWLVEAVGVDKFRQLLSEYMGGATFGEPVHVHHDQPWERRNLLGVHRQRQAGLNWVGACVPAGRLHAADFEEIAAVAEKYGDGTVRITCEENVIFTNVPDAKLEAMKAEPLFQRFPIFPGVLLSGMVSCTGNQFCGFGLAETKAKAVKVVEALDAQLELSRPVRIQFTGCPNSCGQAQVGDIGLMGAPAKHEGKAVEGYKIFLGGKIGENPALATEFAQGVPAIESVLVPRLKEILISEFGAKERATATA
Assay: spectral perturbation titration
Assay type: binding

O=NO [nitrite]
Kd: 50 µM
